Earlier results in patent US20090068264A1, “Clinical Applications of Tetrahydrobiopterin, Lipoic Acid and Their Salts and Methods of Preparing Tetrahydrobiopterin Bis-Lipoate” (ChronoRX LLC, priority 2005, published 2009).

Tested on: cerebral ischemia-reperfusion
Details: animal studies of cerebral ischemia; after LA pretreatment; reduced from 78% without pretreatment

O=C(O)CCCCC1CCSS1 (stereo not shown) [LA, 1,2-dithiolane-3-pentanoic acid]
mortality rate during 24 hours of reperfusion: 26%
